Laboratory results taken from paper PMC5517430, “2,3,7,8-Tetrachlorodibenzo-p-dioxin (TCDD)-elicited effects on bile acid homeostasis: Alterations in biosynthesis, enterohepatic circulation, and microbial metabolism” (Scientific Reports, 2017).

Columns and labels:
Assay in all cases: Ileal epithelium RNA-Seq differential gene expression (fold change, P1(t), ED50, BMD, BMDL)
Assay type in all cases: in vivo, mouse
Set-up in all cases: key to Cyp3a44 P1(t)_30: statistical P1(t) value; differentially expressed if ≥ 0.8
Slc10a2 = conditions: C57BL/6, mouse, ileal epithelium, oral; male mice, TCDD every 4 d for 28 d
Experimental: (§1) Frozen ileal epithelium scrapings and liver samples were homogenized in TRIzol (Ambion, Waltham, MA) using a Mixer Mill 300 tissue homogenizer (Retsch, Germany) and total RNA was isolated as previously described. RNA was quantified using a Nano-drop spectrophotometer (Thermo Scientific, Wilmington, DE) at 260 nm, and purity was assessed using the A260/A280 ratio and the Caliper LabChip GX (Perkin Elmer, Waltham, MA).
(§2) Dose-dependent gene expression was examined using RNA-Seq performed at the MSU Research Technology Support Facility (RTSF) Genomics Core (rtsf.natsci.msu.edu/genomics). Ileal libraries from three independent biological replicates (n = 3) were prepared using the Ovation Mouse RNA-Seq System 1–16 sample preparation kit (NuGen, San Carlos, CA), with an additional DNase step. Libraries were quantified and sequenced as previously described, using a read depth of ~30 M per sample[33], [67]. Quality was determined using FASTQC v0.11.3 and adaptor sequences were removed using Trimmomatic v0.33. Reads were mapped to the mouse reference genome (GRCm38 release 81) using Bowtie2 v2.2.6 and TopHat2 v2.1.0. Alignments were converted to SAM format using SAMTools v1.2.0. For TCDD-mediated differential gene expression, fold changes were calculated relative to vehicle controls. Hepatic RNA-Seq analysis was previously published. Genes were considered differentially expressed if |fold change| ≥ 1.5 and statistical P1(t) value ≥ 0.8 at one or more doses. RNA-Seq datasets for the ileal epithelium and liver were deposited in the Gene Expression Omnibus (GEO; accession number GSE89430 and GSE87519, respectively). The RNA-Seq results (fold changes, P1(t) values) for each gene discussed in the manuscript have been compiled in Supplementary Table S1. […] Estimation of benchmark dose (BMD) and BMD lower confidence limit (BMDL) was performed using BMDExpress[69] as previously described, and has been included in Supplementary Table S1.

Slc51a = conditions: C57BL/6, mouse, ileal epithelium, oral; male mice, TCDD every 4 d for 28 d
Experimental: as §1, §2

ileal gene expression = tested on: ileal gene expression
Experimental: as §1, §2

[1] = ileum, 0.01 µg/kg TCDD, relative to vehicle control
[2] = ileum, 0.03 µg/kg TCDD, relative to vehicle control
[3] = ileum, 0.1 µg/kg TCDD, relative to vehicle control
[4] = ileum, 0.3 µg/kg TCDD, relative to vehicle control
[5] = ileum, 1 µg/kg TCDD, relative to vehicle control
[6] = ileum, 3 µg/kg TCDD, relative to vehicle control
[7] = ileum, 10 µg/kg TCDD, relative to vehicle control
[8] = ileum, 30 µg/kg TCDD, relative to vehicle control
[9] = male mice, TCDD every 4 d for 28 d

Clc1cc2c(cc1Cl)Oc1cc(Cl)c(Cl)cc1O2 [TCDD, 2,3,7,8-tetrachlorodibenzo-p-dioxin]
fold induction at 28 d (Slc10a2): 1.6
fold induction at 28 d (Slc51a): 1.5
Cyp3a44 BMD (ileal gene expression; ileum): 36.49 µg/kg TCDD
Cyp3a44 BMDL (ileal gene expression; ileum): 18.80 µg/kg TCDD
Cyp3a44 Differentially Expressed? (ileal gene expression; ileum): YES
Cyp3a44 ED50 (ileal gene expression; ileum): Not sigmoidal
Fgf15 BMD (ileal gene expression; ileum): No model fit
Fgf15 BMDL (ileal gene expression; ileum): No model fit
Fgf15 Differentially Expressed? (ileal gene expression; ileum): YES
Fgf15 ED50 (ileal gene expression; ileum): 9.00 µg/kg TCDD
Slc10a2 (ASBT or IBAT) BMD (ileal gene expression; ileum): 5.66 µg/kg TCDD
Slc10a2 (ASBT or IBAT) BMDL (ileal gene expression; ileum): 0.69 µg/kg TCDD
Slc10a2 (ASBT or IBAT) Differentially Expressed? (ileal gene expression; ileum): YES
Slc10a2 (ASBT or IBAT) ED50 (ileal gene expression; ileum): 0.98 µg/kg TCDD
Slc51a (OSTα) BMD (ileal gene expression; ileum): No model fit
Slc51a (OSTα) BMDL (ileal gene expression; ileum): No model fit
Slc51a (OSTα) Differentially Expressed? (ileal gene expression; ileum): YES
Slc51a (OSTα) ED50 (ileal gene expression; ileum): 0.89 µg/kg TCDD
Cyp3a44 P1(t)_0.01 (ileal gene expression; ileum, 0.01 µg/kg TCDD): -0.1316
Cyp3a44 FC_0.01 (ileal gene expression; [1]): 0.91
Fgf15 FC_0.01 (ileal gene expression; [1]): 0.81
Slc10a2 (ASBT or IBAT) FC_0.01 (ileal gene expression; [1]): 0.93
Slc51a (OSTα) FC_0.01 (ileal gene expression; [1]): 0.98
Slc51b (OSTβ) FC_0.01 (ileal gene expression; [1]): 0.88
Cyp3a44 P1(t)_0.03 (ileal gene expression; ileum, 0.03 µg/kg TCDD): 0.0640
Cyp3a44 FC_0.03 (ileal gene expression; [2]): 0.80
Fgf15 FC_0.03 (ileal gene expression; [2]): 0.63
Slc10a2 (ASBT or IBAT) FC_0.03 (ileal gene expression; [2]): 0.93
Slc51a (OSTα) FC_0.03 (ileal gene expression; [2]): 0.96
Slc51b (OSTβ) FC_0.03 (ileal gene expression; [2]): 0.87
Cyp3a44 P1(t)_0.1 (ileal gene expression; ileum, 0.1 µg/kg TCDD): -0.1090
Cyp3a44 FC_0.1 (ileal gene expression; [3]): 0.89
Fgf15 FC_0.1 (ileal gene expression; [3]): 0.85
Slc10a2 (ASBT or IBAT) FC_0.1 (ileal gene expression; [3]): 0.92
Slc51a (OSTα) FC_0.1 (ileal gene expression; [3]): 0.98
Slc51b (OSTβ) FC_0.1 (ileal gene expression; [3]): 0.88
Cyp3a44 P1(t)_0.3 (ileal gene expression; ileum, 0.3 µg/kg TCDD): 0.6027
Cyp3a44 FC_0.3 (ileal gene expression; [4]): 0.61
Fgf15 FC_0.3 (ileal gene expression; [4]): 1.12
Slc10a2 (ASBT or IBAT) FC_0.3 (ileal gene expression; [4]): 0.74
Slc51a (OSTα) FC_0.3 (ileal gene expression; [4]): 1.07
Slc51b (OSTβ) FC_0.3 (ileal gene expression; [4]): 0.88
Cyp3a44 P1(t)_1 (ileal gene expression; ileum, 1 µg/kg TCDD): 0.5083
Cyp3a44 FC_1 (ileal gene expression; [5]): 0.65
Fgf15 FC_1 (ileal gene expression; [5]): 1.50
Slc10a2 (ASBT or IBAT) FC_1 (ileal gene expression; [5]): 1.19
Slc51a (OSTα) FC_1 (ileal gene expression; [5]): 1.30
Slc51b (OSTβ) FC_1 (ileal gene expression; [5]): 0.90
Cyp3a44 P1(t)_3 (ileal gene expression; ileum, 3 µg/kg TCDD): -0.1130
Cyp3a44 FC_3 (ileal gene expression; [6]): 1.12
Fgf15 FC_3 (ileal gene expression; [6]): 1.99
Slc10a2 (ASBT or IBAT) FC_3 (ileal gene expression; [6]): 1.22
Slc51a (OSTα) FC_3 (ileal gene expression; [6]): 1.46
Slc51b (OSTβ) FC_3 (ileal gene expression; [6]): 0.95
Cyp3a44 P1(t)_10 (ileal gene expression; ileum, 10 µg/kg TCDD): 0.9033
Cyp3a44 FC_10 (ileal gene expression; [7]): 0.46
Fgf15 FC_10 (ileal gene expression; [7]): 0.51
Slc10a2 (ASBT or IBAT) FC_10 (ileal gene expression; [7]): 1.38
Slc51a (OSTα) FC_10 (ileal gene expression; [7]): 1.34
Slc51b (OSTβ) FC_10 (ileal gene expression; [7]): 0.93
Cyp3a44 P1(t)_30 (ileal gene expression; ileum, 30 µg/kg TCDD): 0.7035
Cyp3a44 FC_30 (ileal gene expression; [8]): 0.58
Fgf15 FC_30 (ileal gene expression; [8]): 0.10
Slc10a2 (ASBT or IBAT) FC_30 (ileal gene expression; [8]): 1.59
Slc51a (OSTα) FC_30 (ileal gene expression; [8]): 1.15
Slc51b (OSTβ) FC_30 (ileal gene expression; [8]): 0.79
Cyp3a44 ileal expression, fold repression (ileal gene expression; [9]): 2.2 fold
Slc51b ileal expression (ileal gene expression; [9]): unchanged
